Assays:
Test in all cases: Yeast growth assay, specificity profiling;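 for EGFR (L858R) growth restoration: Parenthesized + marks a result obtained in a different yeast background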
Assay type in all cases: cell-based
Design in all cases: key: “−” indicates no growth restoration i.e. no activity against the particular kinase; “+”, “++”, and “+++” indicate activity detected by restoration of growth, classified into three categories of potency; “+”, “++”, and “+++” indicate activity detected by restoration of growth, classified into three categories of potency; “+”, “++”, and “+++” indicate activity detected by restoration of growth, classified into three categories of potency
Settings in all cases: 7 concentrations between 0.2 and 100 μM
[1] = target: T1, CSF-1R (Homo sapiens, UniProt P07333)
T1 construct: expressed in transfected cells; host or cells: yeast
T1 sequence (P07333 20-972): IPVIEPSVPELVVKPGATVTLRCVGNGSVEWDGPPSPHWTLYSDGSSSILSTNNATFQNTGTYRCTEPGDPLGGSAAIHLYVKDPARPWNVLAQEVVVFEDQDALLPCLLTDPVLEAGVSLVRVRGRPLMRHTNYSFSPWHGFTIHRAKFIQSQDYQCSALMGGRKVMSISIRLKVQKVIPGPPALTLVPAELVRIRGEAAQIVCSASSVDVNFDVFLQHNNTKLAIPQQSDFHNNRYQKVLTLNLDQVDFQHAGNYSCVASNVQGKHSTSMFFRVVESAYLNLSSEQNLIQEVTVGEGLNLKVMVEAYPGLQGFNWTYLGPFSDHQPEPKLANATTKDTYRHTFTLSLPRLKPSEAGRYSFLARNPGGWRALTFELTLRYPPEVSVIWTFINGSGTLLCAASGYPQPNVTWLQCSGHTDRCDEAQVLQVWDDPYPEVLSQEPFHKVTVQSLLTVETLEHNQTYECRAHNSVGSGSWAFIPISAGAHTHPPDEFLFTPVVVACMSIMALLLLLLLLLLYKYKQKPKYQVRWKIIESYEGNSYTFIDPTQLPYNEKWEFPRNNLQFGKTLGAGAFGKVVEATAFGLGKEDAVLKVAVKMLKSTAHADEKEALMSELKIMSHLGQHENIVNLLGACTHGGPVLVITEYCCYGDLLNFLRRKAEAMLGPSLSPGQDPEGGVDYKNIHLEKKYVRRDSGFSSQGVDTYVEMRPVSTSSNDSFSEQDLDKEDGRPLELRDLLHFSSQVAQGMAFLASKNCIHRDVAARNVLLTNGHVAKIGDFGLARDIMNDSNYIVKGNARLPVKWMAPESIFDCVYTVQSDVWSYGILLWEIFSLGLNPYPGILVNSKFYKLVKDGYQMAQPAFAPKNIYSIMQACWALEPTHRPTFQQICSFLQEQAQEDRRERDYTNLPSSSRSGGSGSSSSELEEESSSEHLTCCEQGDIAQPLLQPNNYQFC
Procedure, shortened: (§1)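 Compounds titrated at 7 concentrations spanning 0.2 to 100 μM were tested on yeast whose plasmid-borne RTK, induced by galactose after glucose repression, inhibits growth. Categories −, +, ++, +++ reflect maximal growth recovery and the concentration achieving it.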

[2] = target: T2, EGFR (L858R) (Homo sapiens, UniProt P00533, L858R);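 note: Parenthesized + marks a result obtained in a different yeast background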
T2 construct: expressed in transfected cells; host or cells: yeast
Procedure, shortened: as §1

[3] = target: T3, ErbB2 (Homo sapiens, UniProt P04626)
T3 construct: expressed in transfected cells; host or cells: yeast
T3 sequence (P04626 23-1255): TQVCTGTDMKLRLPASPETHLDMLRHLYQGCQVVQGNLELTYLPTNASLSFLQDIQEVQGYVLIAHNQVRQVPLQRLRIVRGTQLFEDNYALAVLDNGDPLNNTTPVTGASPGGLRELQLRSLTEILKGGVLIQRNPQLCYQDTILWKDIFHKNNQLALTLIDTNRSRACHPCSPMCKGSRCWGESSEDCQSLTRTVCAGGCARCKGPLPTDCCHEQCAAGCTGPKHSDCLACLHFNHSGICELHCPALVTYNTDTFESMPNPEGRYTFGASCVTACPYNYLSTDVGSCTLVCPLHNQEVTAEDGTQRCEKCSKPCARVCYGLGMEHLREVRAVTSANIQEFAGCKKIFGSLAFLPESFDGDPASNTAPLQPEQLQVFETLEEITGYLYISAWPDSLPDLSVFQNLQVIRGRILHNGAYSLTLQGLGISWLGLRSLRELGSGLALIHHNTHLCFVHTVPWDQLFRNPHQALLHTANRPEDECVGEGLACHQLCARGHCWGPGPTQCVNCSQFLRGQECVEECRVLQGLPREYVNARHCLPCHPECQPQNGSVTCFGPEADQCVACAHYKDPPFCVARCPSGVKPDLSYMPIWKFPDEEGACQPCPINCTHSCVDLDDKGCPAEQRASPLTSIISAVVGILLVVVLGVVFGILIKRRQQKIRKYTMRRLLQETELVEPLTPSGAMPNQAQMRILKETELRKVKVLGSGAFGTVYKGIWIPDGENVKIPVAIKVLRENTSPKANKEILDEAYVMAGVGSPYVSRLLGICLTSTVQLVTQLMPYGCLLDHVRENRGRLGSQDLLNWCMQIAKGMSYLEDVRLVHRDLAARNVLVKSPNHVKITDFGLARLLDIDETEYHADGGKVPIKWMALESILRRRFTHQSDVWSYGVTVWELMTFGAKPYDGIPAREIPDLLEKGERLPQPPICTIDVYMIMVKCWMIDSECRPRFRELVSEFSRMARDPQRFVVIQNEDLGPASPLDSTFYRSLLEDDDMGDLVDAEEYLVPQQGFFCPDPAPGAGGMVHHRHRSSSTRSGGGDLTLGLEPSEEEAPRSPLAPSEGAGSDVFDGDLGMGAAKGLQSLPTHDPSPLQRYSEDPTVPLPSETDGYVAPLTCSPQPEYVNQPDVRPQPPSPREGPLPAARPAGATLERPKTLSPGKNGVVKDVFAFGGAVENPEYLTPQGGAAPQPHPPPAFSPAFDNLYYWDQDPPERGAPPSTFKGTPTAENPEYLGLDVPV
Procedure, shortened: as §1

[4] = target: T4, FGFR-1 (Homo sapiens, UniProt P11362)
T4 construct: expressed in transfected cells; host or cells: yeast
T4 sequence (P11362 22-822): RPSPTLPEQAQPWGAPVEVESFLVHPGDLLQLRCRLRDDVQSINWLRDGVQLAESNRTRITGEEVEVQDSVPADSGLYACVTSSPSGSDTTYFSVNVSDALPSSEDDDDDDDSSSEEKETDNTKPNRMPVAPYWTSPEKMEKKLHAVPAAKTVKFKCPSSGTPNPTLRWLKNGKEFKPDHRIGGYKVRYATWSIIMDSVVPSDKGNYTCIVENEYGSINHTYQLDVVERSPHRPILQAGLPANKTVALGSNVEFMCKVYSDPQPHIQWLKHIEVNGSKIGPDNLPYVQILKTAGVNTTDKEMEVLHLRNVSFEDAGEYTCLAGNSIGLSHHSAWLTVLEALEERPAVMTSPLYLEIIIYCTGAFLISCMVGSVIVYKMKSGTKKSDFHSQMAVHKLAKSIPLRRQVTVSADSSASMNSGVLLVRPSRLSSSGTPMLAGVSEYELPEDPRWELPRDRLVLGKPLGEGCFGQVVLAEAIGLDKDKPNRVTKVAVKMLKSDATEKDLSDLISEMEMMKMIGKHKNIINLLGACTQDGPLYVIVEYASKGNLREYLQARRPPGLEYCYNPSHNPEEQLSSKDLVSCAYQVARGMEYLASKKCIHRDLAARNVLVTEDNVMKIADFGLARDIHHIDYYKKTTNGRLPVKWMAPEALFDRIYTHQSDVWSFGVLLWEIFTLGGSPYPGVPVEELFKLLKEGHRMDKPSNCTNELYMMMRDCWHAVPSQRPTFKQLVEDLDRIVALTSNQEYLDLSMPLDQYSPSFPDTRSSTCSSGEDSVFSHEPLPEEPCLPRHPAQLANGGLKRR
Procedure, shortened: as §1

[5] = target: T5, FGFR-3 (Homo sapiens, UniProt P22607)
T5 construct: expressed in transfected cells; host or cells: yeast
T5 sequence (P22607 23-806): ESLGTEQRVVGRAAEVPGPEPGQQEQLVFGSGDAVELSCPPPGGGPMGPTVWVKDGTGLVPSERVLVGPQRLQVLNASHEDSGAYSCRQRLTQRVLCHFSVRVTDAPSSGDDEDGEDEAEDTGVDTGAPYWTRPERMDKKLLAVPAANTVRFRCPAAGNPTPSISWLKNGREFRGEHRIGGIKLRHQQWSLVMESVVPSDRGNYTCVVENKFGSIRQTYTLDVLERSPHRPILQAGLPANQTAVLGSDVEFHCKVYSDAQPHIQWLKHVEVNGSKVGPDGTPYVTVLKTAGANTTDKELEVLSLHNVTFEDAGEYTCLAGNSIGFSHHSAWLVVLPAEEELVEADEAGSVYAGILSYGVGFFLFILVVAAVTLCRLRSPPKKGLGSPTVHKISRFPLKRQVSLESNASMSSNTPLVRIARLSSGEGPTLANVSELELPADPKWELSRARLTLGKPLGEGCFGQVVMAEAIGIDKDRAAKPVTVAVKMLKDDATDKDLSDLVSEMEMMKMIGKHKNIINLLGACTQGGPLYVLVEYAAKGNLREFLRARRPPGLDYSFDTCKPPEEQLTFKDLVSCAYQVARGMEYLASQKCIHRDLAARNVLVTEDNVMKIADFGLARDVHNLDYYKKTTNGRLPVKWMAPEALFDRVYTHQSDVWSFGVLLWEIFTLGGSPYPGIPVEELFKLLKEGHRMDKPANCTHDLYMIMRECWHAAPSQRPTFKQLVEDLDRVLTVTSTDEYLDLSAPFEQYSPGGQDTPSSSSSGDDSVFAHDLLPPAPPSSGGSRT
Procedure, shortened: as §1

[6] = target: T6, FLT3 (Homo sapiens, UniProt P36888)
T6 construct: expressed in transfected cells; host or cells: yeast
T6 sequence (P36888 27-993): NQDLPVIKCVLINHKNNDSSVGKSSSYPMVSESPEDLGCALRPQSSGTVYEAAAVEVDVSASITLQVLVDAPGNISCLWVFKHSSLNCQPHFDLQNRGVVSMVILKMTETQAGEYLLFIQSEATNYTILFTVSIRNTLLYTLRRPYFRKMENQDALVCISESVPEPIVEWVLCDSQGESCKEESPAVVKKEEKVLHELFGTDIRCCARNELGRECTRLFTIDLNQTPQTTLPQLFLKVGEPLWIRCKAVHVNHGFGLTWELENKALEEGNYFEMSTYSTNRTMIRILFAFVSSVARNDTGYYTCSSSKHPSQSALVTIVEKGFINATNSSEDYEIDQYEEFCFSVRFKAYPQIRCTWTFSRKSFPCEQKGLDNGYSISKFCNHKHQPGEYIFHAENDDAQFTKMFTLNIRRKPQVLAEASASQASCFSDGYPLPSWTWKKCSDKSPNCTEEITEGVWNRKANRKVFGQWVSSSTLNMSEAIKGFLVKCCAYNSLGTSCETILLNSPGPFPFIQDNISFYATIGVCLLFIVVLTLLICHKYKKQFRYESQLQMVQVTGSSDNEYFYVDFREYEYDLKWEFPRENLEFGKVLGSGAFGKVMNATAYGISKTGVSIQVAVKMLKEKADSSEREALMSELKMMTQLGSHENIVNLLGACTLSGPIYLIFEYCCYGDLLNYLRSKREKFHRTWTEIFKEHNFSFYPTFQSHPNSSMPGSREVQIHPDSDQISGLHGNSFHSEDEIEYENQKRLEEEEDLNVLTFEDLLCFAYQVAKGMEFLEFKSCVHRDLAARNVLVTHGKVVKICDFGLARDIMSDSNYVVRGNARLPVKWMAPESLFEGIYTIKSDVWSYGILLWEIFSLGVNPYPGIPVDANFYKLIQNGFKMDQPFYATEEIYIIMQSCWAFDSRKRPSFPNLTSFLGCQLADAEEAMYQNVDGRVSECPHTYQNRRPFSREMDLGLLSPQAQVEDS
Procedure, shortened: as §1

[7] = target: T7, PDGFRa (Homo sapiens, UniProt P16234)
T7 construct: expressed in transfected cells; host or cells: yeast
T7 sequence (P16234 24-1089): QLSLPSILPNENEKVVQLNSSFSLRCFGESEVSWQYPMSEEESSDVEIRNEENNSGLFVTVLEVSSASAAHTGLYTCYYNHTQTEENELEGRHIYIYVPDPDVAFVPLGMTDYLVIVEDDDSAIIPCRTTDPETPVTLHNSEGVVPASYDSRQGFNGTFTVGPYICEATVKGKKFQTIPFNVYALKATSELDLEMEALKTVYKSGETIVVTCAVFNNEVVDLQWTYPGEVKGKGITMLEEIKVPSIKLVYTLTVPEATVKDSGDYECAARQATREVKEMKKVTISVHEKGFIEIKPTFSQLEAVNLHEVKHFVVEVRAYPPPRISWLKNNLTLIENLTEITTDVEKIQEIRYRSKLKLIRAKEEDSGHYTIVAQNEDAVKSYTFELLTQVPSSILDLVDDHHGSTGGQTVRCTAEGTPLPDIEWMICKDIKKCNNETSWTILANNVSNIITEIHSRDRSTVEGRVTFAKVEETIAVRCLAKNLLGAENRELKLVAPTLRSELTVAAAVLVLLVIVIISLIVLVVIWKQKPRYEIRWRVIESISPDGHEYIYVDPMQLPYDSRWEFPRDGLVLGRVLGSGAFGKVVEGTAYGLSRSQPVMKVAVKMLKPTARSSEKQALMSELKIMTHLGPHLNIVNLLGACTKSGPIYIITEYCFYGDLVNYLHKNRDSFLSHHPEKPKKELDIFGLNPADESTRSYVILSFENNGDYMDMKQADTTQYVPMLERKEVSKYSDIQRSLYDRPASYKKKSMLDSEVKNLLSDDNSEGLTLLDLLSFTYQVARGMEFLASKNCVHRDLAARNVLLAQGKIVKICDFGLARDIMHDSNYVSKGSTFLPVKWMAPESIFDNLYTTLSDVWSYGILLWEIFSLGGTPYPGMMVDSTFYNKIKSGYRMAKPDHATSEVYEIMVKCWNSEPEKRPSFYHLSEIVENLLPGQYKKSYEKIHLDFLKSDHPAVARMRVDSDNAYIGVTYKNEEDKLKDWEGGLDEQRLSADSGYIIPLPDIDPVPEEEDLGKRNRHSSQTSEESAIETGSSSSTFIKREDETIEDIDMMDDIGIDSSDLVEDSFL
Procedure, shortened: as §1

Clc1ccc(Nc2c(-c3ccccc3)nc3cnccn23)cc1 [compound 16, (4-Chloro-phenyl)-(2-phenyl-imidazo[1,2-a]pyrazin-3-yl)-amine]
CSF-1R growth restoration [1]: −
EGFR (L858R) growth restoration [2]: −
ErbB2 growth restoration [3]: −
FGFR-1 growth restoration [4]: −
FGFR-3 growth restoration [5]: −
FLT3 growth restoration [6]: −
PDGFRa growth restoration [7]: −

Cc1nccn2c(Nc3ccc(F)c(F)c3)c(-c3ccccc3)nc12 [compound 45, (3,4-Difluoro-phenyl)-(8-methyl-2-phenyl-imidazo[1,2-a]pyrazin-3-yl)-amine]
CSF-1R growth restoration [1]: −
EGFR (L858R) growth restoration [2]: −
ErbB2 growth restoration [3]: −
FGFR-1 growth restoration [4]: −
FGFR-3 growth restoration [5]: −
FLT3 growth restoration [6]: −
PDGFRa growth restoration [7]: −

Cc1nccn2c(Nc3cccc(F)c3)c(-c3ccccc3)nc12 [compound 44, (3-Fluoro-phenyl)-(8-methyl-2-phenyl-imidazo[1,2-a]pyrazin-3-yl)-amine]
CSF-1R growth restoration [1]: −
EGFR (L858R) growth restoration [2]: +
ErbB2 growth restoration [3]: −
FGFR-1 growth restoration [4]: −
FGFR-3 growth restoration [5]: −
FLT3 growth restoration [6]: −
PDGFRa growth restoration [7]: −

Cc1cccc(Nc2c(-c3ccccc3)nc3c(C)nccn23)c1 [compound 43, (8-Methyl-2-phenyl-imidazo[1,2-a]pyrazin-3-yl)-m-tolyl-amine]
CSF-1R growth restoration [1]: −
EGFR (L858R) growth restoration [2]: −
ErbB2 growth restoration [3]: −
FGFR-1 growth restoration [4]: −
FGFR-3 growth restoration [5]: −
FLT3 growth restoration [6]: −
PDGFRa growth restoration [7]: −

Cc1nccn2c(Nc3ccccc3)c(-c3ccccc3)nc12 [compound 39, (8-Methyl-2-phenyl-imidazo[1,2-a]pyrazin-3-yl)-phenyl-amine]
CSF-1R growth restoration [1]: −
EGFR (L858R) growth restoration [2]: +
ErbB2 growth restoration [3]: −
FGFR-1 growth restoration [4]: −
FGFR-3 growth restoration [5]: −
FLT3 growth restoration [6]: −
PDGFRa growth restoration [7]: −

Cc1cccc(Nc2c(-c3ccccc3)nc3cnccn23)c1 [compound 34, (2-Phenyl-imidazo[1,2-a]pyrazin-3-yl)-m-tolyl-amine]
CSF-1R growth restoration [1]: −
EGFR (L858R) growth restoration [2]: −
ErbB2 growth restoration [3]: −
FGFR-1 growth restoration [4]: −
FGFR-3 growth restoration [5]: −
FLT3 growth restoration [6]: −
PDGFRa growth restoration [7]: −

c1ccc(Nc2c(-c3ccccc3)nc3cnccn23)cc1 [compound 23, Phenyl-(2-phenyl-imidazo[1,2-a]pyrazin-3-yl)-amine]
CSF-1R growth restoration [1]: −
EGFR (L858R) growth restoration [2]: +
ErbB2 growth restoration [3]: −
FGFR-1 growth restoration [4]: −
FGFR-3 growth restoration [5]: −
FLT3 growth restoration [6]: −
PDGFRa growth restoration [7]: −

Brc1cccc(Nc2c(-c3ccccc3)nc3cnccn23)c1 [compound 14, (3-Bromo-phenyl)-(2-phenyl-imidazo[1,2-a]pyrazin-3-yl)-amine]
CSF-1R growth restoration [1]: −
EGFR (L858R) growth restoration [2]: −
ErbB2 growth restoration [3]: −
FGFR-1 growth restoration [4]: −
FGFR-3 growth restoration [5]: −
FLT3 growth restoration [6]: −
PDGFRa growth restoration [7]: −

COc1cccc(-c2nc3cnccn3c2Nc2cccc(Cl)c2)c1 [compound 7, (3-Chloro-phenyl)-[2-(3-methoxy-phenyl)-imidazo[1,2-a]pyrazin-3-yl]-amine]
CSF-1R growth restoration [1]: −
EGFR (L858R) growth restoration [2]: +
ErbB2 growth restoration [3]: −
FGFR-1 growth restoration [4]: −
FGFR-3 growth restoration [5]: −
FLT3 growth restoration [6]: −
PDGFRa growth restoration [7]: −

Clc1cccc(Nc2c(-c3ccccc3)nc3cnccn23)c1 [compound 35, (3-Chloro-phenyl)-(2-phenyl-imidazo[1,2-a]pyrazin-3-yl)-amine]
CSF-1R growth restoration [1]: −
EGFR (L858R) growth restoration [2]: +
ErbB2 growth restoration [3]: −
FGFR-1 growth restoration [4]: −
FGFR-3 growth restoration [5]: −
FLT3 growth restoration [6]: −
PDGFRa growth restoration [7]: −

Cc1nccn2c(Nc3cccc(Cl)c3)c(-c3ccccc3)nc12 [compound 3, (3-Chloro-phenyl)-(8-methyl-2-phenyl-imidazo[1,2-a]pyrazin-3-yl)-amine]
CSF-1R growth restoration [1]: −
EGFR (L858R) growth restoration [2]: +
ErbB2 growth restoration [3]: −
FGFR-1 growth restoration [4]: −
FGFR-3 growth restoration [5]: −
FLT3 growth restoration [6]: −
PDGFRa growth restoration [7]: −
